The results in this text go back to patent publication US20150031643A1, “COMBINATION TREATMENT OF ACUTE MYELOID LEUKEMIA AND MYELODYSPLASTIC SYNDROME II” (Boehringer Ingelheim International GmbH, priority 2013, published 2015).

Structures are written as SMILES.

For the assay, the system named is human AML cell line MV4;11. Description: Nude mouse xenograft model derived from human AML cell line MV4;11: tumor growth. The format is in vivo, mice. The note with it: treated for 19 days. On the procedure:
MV4;11 (CRL-9591) cells were obtained from ATCC. According to the Catalogue of Somatic Mutations in Cancer of the Wellcome Trust Sanger Institute, UK, this cell line carries a mutation in the FLT3 gene. Cells were cultured in T175 tissue culture flasks at 37° C. and 5% CO2. The medium used was IMDM supplemented with 10% fetal calf serum, 1% NEAA, 1% sodium pyruvate and 1% glutamine.
To establish subcutaneous tumors, MV4;11 cells were harvested and resuspended in PBS+5% FCS at 5×10^7 cells/ml. 50 μl of the cell suspension containing 2.5×10^6 cells was then injected subcutaneously into the right flank of the mice (1 site per mouse). Growth factor reduced BD Matrigel™ Matrix (BD Biosciences) was added to the cell suspension at a ratio of 1:1 before the injection. When tumors were well established and had reached a tumor volume of ˜120 mm^3, mice were randomly distributed between the treatment and the vehicle control groups 14 days after injecting the cells.
The solution was freshly made up each injection day.
The application solution was prepared on each injection day.
Animals were treated for 19 days.
Background: In xenograft studies the graft and the host belong to different species.

As to `CC[C@@H]1C(=O)N(C)c2cnc(Nc3ccc(C(=O)N[C@H]4CC[C@H](N5CCN(CC6CC6)CC5)CC4)cc3OC)nc2N1C(C)C` [Volasertib, N-[trans-4-[4-(cyclopropylmethyl)-1-piperazinyl]cyclohexyl]-4-[[(7R)-7-ethyl-5,6,7,8-tetrahydro-5-methyl-8-(1-methylethyl)-6-oxo-2-pteridinyl]amino]-3-methoxy-benzamide], the “T/C (ratio of median tumor volume of treated vs. control tumors)” value is 79% (Example 1, Volasertib alone 10 mg/kg once weekly i.v.) and 39% (Example 2, Volasertib alone 20 mg/kg once weekly i.v.).
On to `Nc1ncn([C@@H]2O[C@H](CO)[C@@H](O)[C@H]2O)c(=O)n1` [azacitidine, Azacitidine], for which the “T/C (ratio of median tumor volume of treated vs. control tumors)” value is recorded as 78% (Example 1, Azacitidine alone 40 mg/kg once weekly i.v.) and 78% (Example 2, Azacitidine alone 40 mg/kg once weekly i.v.).
